Results on four compounds are retold here after PMC12024397, “Structure–Activity Study of the Antimicrobial Lipopeptide Humimycin A and Screening Against Multidrug-Resistant Staphylococcus aureus” (Antibiotics, 2025).

In brackets after ≈: the same amount, converted by molar mass. Non-standard residues stand in square brackets, D forms with d. Residues, ends and D or L forms follow the SMILES beside them. *: point of attachment. Tetradecanoyl(3R-OH) = CCCCCCCCCCC[C@@H](O)CC(=O)*; Tetradecanoyl(3S-OH) = CCCCCCCCCCC[C@H](O)CC(=O)*

For data set [1], the system named is Bacillus subtilis ATCC 23857. Kind of data set: MIC, broth microdilution. The format is cell-based. As to conditions: 37 °C, 18–20 h, triplicate. The source says: (§1) Analogs were serially diluted two-fold from stock solutions.
(In general: In broth dilution the organism is exposed to a series of concentrations in liquid medium.)

For data set [2], the system named is Escherichia coli ATCC 25922. Kind of data set: MIC, broth microdilution. In kind it is cell-based. As to conditions: 37 °C, 18–20 h, triplicate.
Excerpt: as §1

The test system of data set [3] is Pseudomonas aeruginosa ATCC 27853. Nature of the data set: MIC, broth microdilution. The format is cell-based. As to conditions: 37 °C, 18–20 h, triplicate.
Excerpt: as §1

Data set [4] relates to Salmonella enterica ATCC 14028. Kind of data set: MIC, broth microdilution. The conditions noted are these: 37 °C, 18–20 h, triplicate. The format is cell-based.
Excerpt: as §1

Data set [5] relates to S. aureus strain 4-138. The conditions noted are these: broth microdilution, triplicate; isolate 4-138, no resistance profile listed. From the text: (§2) The bacterial strains used in this study included S. aureus ATCC 29213 and ATCC 43300, B. subtilis ATCC […], E. coli ATCC 25922, P. aeruginosa ATCC 27853, and S. enterica serovar Typhimurium ATCC 14028, all of which were purchased from Cedarlane, Canada. Additionally, a collection of 19 S. aureus strains, ranging from antibiotic-sensitive to multidrug-resistant, and originating from clinical intramammary infections (IMI), was selected from the Mastitis Pathogen Culture Collection of the Canadian Bovine Mastitis Research Network (Université de Montréal, St-Hyacinthe, QC, Canada). These strains, previously used in other studies, were also included in this work. S. aureus ATCC 29213 and B. subtilis ATCC 6633 were cultured in Tryptic Soy Broth (TSB) (Difco^TM, Becton, Dickenson & Company, Spark, MD, USA). E. coli ATCC 25922 and P. aeruginosa ATCC 27853 were grown in Luria–Bertani (LB) broth (Fisher Scientific, Fair Lawn, NJ, USA). S. enterica serovar Typhimurium ATCC 14028 was propagated in Nutrient Broth (NB) (Oxoid, Basingstoke, UK). All bacterial cultures were incubated overnight at 37 °C before use and during the performance of assays.
(§3) MIC assays were performed using the broth microdilution method in 96-well plates. Analogs were serially diluted two-fold from stock solutions. The plates were incubated overnight at 37 °C and bacterial growth was monitored by measuring the absorbance at 595 nm over 18–20 h and the assay was performed in triplicate.

The test system of data set [6] is S. aureus strain 4-140. The conditions noted are these: broth microdilution, triplicate; isolate 4-140, resistance TET.
Excerpt: as §2, §3

In data set [7] the test system is S. aureus strain 4-171. The format is cell-based, Staphylococcus aureus. The conditions noted are these: broth microdilution, triplicate; isolate 4-171, resistance PEN-AMC-CEF-CTX-FOX.
Excerpt: as §1

The test system of data set [8] is S. aureus ATCC 29213. Nature of the data set: growth kinetics. The format is cell-based, Staphylococcus aureus. As to conditions: TSB, 37 °C, 6 h, OD 595 nm every 2 h, peptide at MIC, three independent experiments. On the procedure:
Figure 2 Growth kinetics of S. aureus ATCC 29213 in the presence of humimycin analogs 12R, 12S, 13R, and 13S. Cultures of S. aureus were treated with various concentrations (2 × MIC, MIC, ½ × MIC, and ¼ × MIC) of the peptides and their growth was monitored by measuring the optical density at 595 nm. The positive control consisted of an untreated S. aureus culture, while the negative control contained only the growth medium without bacterial inoculation. The data represents the mean ± standard deviation of three independent experiments.
The growth kinetics of S. aureus ATCC 29213 in presence of humimycin analogs 12R, 12S, 13R, and 13S was assessed on S. aureus cultures in TSB at 37 °C in the stationary phase. The overnight culture was then diluted 1:100 in fresh TSB to achieve an initial optical density at 600 nm (OD600) of approximately 0.05. Humimycin analogs were prepared at concentrations corresponding to 0.5×, 1×, and 2× the MIC. S. aureus cultures without any analog served as the positive control and culture media was the negative control. The treated and control cultures were incubated at 37 °C for a total duration of 6 h. Absorbance readings at 595 nm were recorded every 2 h using a microplate reader to monitor the bacterial growth. The OD595 values were then plotted against time to generate bacterial growth curves. To ensure reproducibility, all experiments were performed in triplicate, with results expressed in a graph as mean ± standard deviation.

For data set [9], the system named is human red blood cells. In kind it is cell-based. As to conditions: red cells of human, 1 h. On the procedure:
Figure 3 The hemolytic activity of synthetic humimycin analogs 12R, 12S, 13R, and 13S on human erythrocytes. Positive control: 0.2% Triton X-100 in PBS, negative control: PBS. The data represent the mean ± standard deviation of three independent experiments.
Hemolytic potential of the humimycin analogs 12R, 12S, 13R, and 13S, was evaluated by exposing fresh, uninfected red blood cells (RBCs) to 16 two-fold serial dilutions of each analog, ranging from 512 μg/mL to 0.015 μg/mL, in RPMI-1640 medium supplemented with HEPES and containing a maximum of 0.5% dimethyl sulfoxide (DMSO). The assay was performed in round-bottom 96-well plates at a final hematocrit of 1%. Mock control wells contained RBCs in RPMI-1640 with 1% DMSO, while 100% lysis control wells contained RBCs in RPMI-1640 with 1% DMSO and 1% Triton X-100. The plates were incubated for 1 h at 37 °C under a gassed atmosphere. Following incubation, the plates were centrifuged at 800× g for 5 min, and 100 μL of supernatant from each well was transferred to a clean flat-bottom 96-well plate. The absorbance of released hemoglobin in the supernatant was measured at 405 nm using a VICTOR plate reader (PerkinElmer). The percentage of hemolysis was calculated by comparing the absorbance of the supernatant from compound-treated RBCs to that of the mock control and 100% lysis control wells. All assays were performed in triplicates.

Data set [10] is described as follows: critical micelle concentration, Nile Red fluorescence. The format is physicochemical. The conditions noted are these: overnight equilibration, intersection of linear fits of fluorescence vs log concentration. On the procedure:
Figure 4 CMC measurements of synthetic humimycin analogs 12R, 12S, 13R, and 13S. The CMC is the concentration at the intersection of the linear fits to the fluorescence intensity against log 10 concentration of peptide. Black circle: monomer; red circle: micelle.
The CMC of synthesized analogs 12R, 12S, 13R, and 13S was determined using the Nile Red fluorescence method, which takes advantage of the dye’s enhanced fluorescence emission in hydrophobic environments. A 500 μM stock solution of Nile Red was prepared in DMSO. Aliquots of 10 μL of this stock solution were added to each well and kept in the dark. Peptide solutions (200 μL) at various concentrations were then added to the well and allowed to equilibrate with the Nile Red overnight. Fluorescence emission spectra were recorded from 485 nm to 636 nm on a SpectraMax i3 spectrofluorometer with an excitation and emission bandwidth 9 nm and 15 nm, respectively. The ratio of the emission intensity was calculated for each peptide concentration and plotted against the logarithm of the peptide concentration. The CMC was determined from the intersection of the linear fits to the data points below and above the transition region in the plot. Tween-20 was used as positive control.

Regarding `CCCCCCCCCCC[C@@H](O)CC(=O)N[C@@H](Cc1c[nH]c2ccccc12)C(=O)N[C@@H](CO)C(=O)N[C@H](Cc1c[nH]c2ccccc12)C(=O)N[C@@H](Cc1ccccc1)C(=O)N[C@@H](C(=O)N[C@H](C(=O)N[C@H](C(=O)O)C(C)C)C(C)C)[C@H](C)O` [12R] ({Tetradecanoyl(3R-OH)}-WS[dW]F[dT]VV-OH), the MIC (as a rule, the lowest concentration found to suppress growth) is “- (No antimicrobial activity was detected up to 256 µg/mL)” in data set [1]; “- (No antimicrobial activity was detected up to 256 µg/mL)” in data set [2]; “- (No antimicrobial activity was detected up to 256 µg/mL)” in data set [3]; “- (No antimicrobial activity was detected up to 256 µg/mL)” in [4]; 4 µg/mL (≈ 3.48 µM) in data set [5]; 8 µg/mL (≈ 6.95 µM) in data set [6]. The MIC in [7] is on record as 2 µg/mL (≈ 1.74 µM). The “effect on bacterial growth at MIC” value in data set [8] is “effectively inhibited the growth”. Further, the HC50 (in general, the concentration giving 50% haemolysis) in data set [9] is 44.8 µg/mL. The CMC entry in data set [10] is on record as “approximately 60 μg/mL”.
As for `CCCCCCCCCCC[C@H](O)CC(=O)N[C@@H](Cc1c[nH]c2ccccc12)C(=O)N[C@@H](CO)C(=O)N[C@H](Cc1c[nH]c2ccccc12)C(=O)N[C@@H](Cc1ccccc1)C(=O)N[C@@H](C(=O)N[C@H](C(=O)N[C@H](C(=O)O)C(C)C)C(C)C)[C@H](C)O` [12S] ({Tetradecanoyl(3S-OH)}-WS[dW]F[dT]VV-OH), the MIC result is on record as “- (No antimicrobial activity was detected up to 256 µg/mL)” in [1]; “- (No antimicrobial activity was detected up to 256 µg/mL)” in data set [2]; “- (No antimicrobial activity was detected up to 256 µg/mL)” in data set [3]; “- (No antimicrobial activity was detected up to 256 µg/mL)” in data set [4]; 4 µg/mL (≈ 3.48 µM) in data set [5]; 16 µg/mL (≈ 13.9 µM) in data set [6]. The MIC in [7] turned out to be 1 µg/mL (≈ 0.869 µM). Besides, the “effect on bacterial growth at MIC” value in data set [8] is “effectively inhibited the growth”. Moreover, the HC50 in data set [9] is 60.8 µg/mL. The CMC in data set [10] is about 70 µg/mL.
For the compound `CCCCCCCCCCC[C@@H](O)CC(=O)N[C@@H](Cc1c[nH]c2ccccc12)C(=O)N[C@@H](CO)C(=O)N[C@H](Cc1c[nH]c2ccccc12)C(=O)N[C@@H](Cc1ccccc1)C(=O)N[C@@H](C(=O)N[C@@H](C)C(=O)N[C@H](C(=O)O)C(C)C)[C@H](C)O` [13R] ({Tetradecanoyl(3R-OH)}-WS[dW]F[dT]AV-OH), the MIC result is given as “- (No antimicrobial activity was detected up to 256 µg/mL)” in [1]; “- (No antimicrobial activity was detected up to 256 µg/mL)” in data set [2]; “- (No antimicrobial activity was detected up to 256 µg/mL)” in [3]; “- (No antimicrobial activity was detected up to 256 µg/mL)” in [4]; 16 µg/mL (≈ 14.3 µM) in [5]; 16 µg/mL (≈ 14.3 µM) in data set [6]. Further, the MIC in [7] was determined as 0.5 µg/mL (≈ 0.445 µM). For the same compound, in data set [8], the “effect on bacterial growth at MIC” value is listed as “effectively inhibited the growth”. Moreover, in data set [9], the HC50 came to 76.8 µg/mL. The CMC in data set [10] is about 12 µg/mL.
`CCCCCCCCCCC[C@H](O)CC(=O)N[C@@H](Cc1c[nH]c2ccccc12)C(=O)N[C@@H](CO)C(=O)N[C@H](Cc1c[nH]c2ccccc12)C(=O)N[C@@H](Cc1ccccc1)C(=O)N[C@@H](C(=O)N[C@@H](C)C(=O)N[C@H](C(=O)O)C(C)C)[C@H](C)O` [13S] ({Tetradecanoyl(3S-OH)}-WS[dW]F[dT]AV-OH): the MIC entry is recorded as “- (No antimicrobial activity was detected up to 256 µg/mL)” in data set [1]; “- (No antimicrobial activity was detected up to 256 µg/mL)” in [2]; “- (No antimicrobial activity was detected up to 256 µg/mL)” in [3]; “- (No antimicrobial activity was detected up to 256 µg/mL)” in data set [4]; 16 µg/mL (≈ 14.3 µM) in data set [5]; 16 µg/mL (≈ 14.3 µM) in [6]. Besides, the MIC in data set [7] was determined as 8 µg/mL (≈ 7.13 µM). In addition, the “effect on bacterial growth at MIC” value in [8] is listed as “effectively inhibited the growth”. Further, the HC50 in [9] worked out at 48 µg/mL. This compound displayed a CMC in [10] of about 40 µg/mL.
